The record followed here is ChEMBL document CHEMBL3603774, “Novel 5-functionalized-pyrazoles: Synthesis, characterization and pharmacological screening” (Bioorg Med Chem Lett, 2015).

Converted amounts (≈) assume the structure as drawn.

Experiment [1] has as its system Bacillus cereus. As to the kind of experiment: Antibacterial activity against Bacillus cereus MTCC 8372 at 50 ug/ml after 24 hrs by disc diffusion method. It is filed as functional. The following applies: MTCC 8372, 24 h, read-out: IZ. (In agar diffusion tests the substance spreads into inoculated agar from a disc or well.)
The subject of experiment [2] is Bacillus cereus. Description: Antibacterial activity against Bacillus cereus MTCC 8372 at 100 ug/ml after 24 hrs by disc diffusion method. The format is functional. The settings on record: MTCC 8372, 24 h, read-out: IZ.
In experiment [3] the test system is Staphylococcus aureus. As to the kind of experiment: Antibacterial activity against Staphylococcus aureus MTCC 96 at 50 ug/ml after 24 hrs by disc diffusion method. It is filed as functional. The settings on record: MTCC 96, 24 h, read-out: IZ.
Experiment [4] concerns Staphylococcus aureus. As to the kind of experiment: Antibacterial activity against Staphylococcus aureus MTCC 96 at 100 ug/ml after 24 hrs by disc diffusion method. The following applies: MTCC 96, 24 h, read-out: IZ. The format is functional.
Experiment [5] has as its system Escherichia coli. Description: Antibacterial activity against Escherichia coli MTCC 724 at 50 ug/ml after 24 hrs by disc diffusion method. The settings on record: MTCC 724, 24 h, read-out: IZ. It is filed as functional.
The test system of experiment [6] is Escherichia coli. As to the kind of experiment: Antibacterial activity against Escherichia coli MTCC 724 at 100 ug/ml after 24 hrs by disc diffusion method. It is filed as functional. The settings on record: MTCC 724, 24 h, read-out: IZ.
Experiment [7] deals with Klebsiella pneumoniae. As to the kind of experiment: Antibacterial activity against Klebsiella pneumoniae MTCC 3384 at 50 ug/ml after 24 hrs by disc diffusion method. The format is functional. The settings on record: MTCC 3384, 24 h, read-out: IZ.
Experiment [8] relates to Klebsiella pneumoniae. As to the kind of experiment: Antibacterial activity against Klebsiella pneumoniae MTCC 3384 at 100 ug/ml after 24 hrs by disc diffusion method. The format is functional. The following applies: MTCC 3384, 24 h, read-out: IZ.
Experiment [9] relates to Aspergillus flavus. Description: Antifungal activity against Aspergillus flavus MTCC 873 at 50 ug/ml after 24 hrs by disc diffusion method. The format is functional. The following applies: for zone of inhibition at 50 µg/mL: MTCC 873, 24 h, read-out: IZ.
For experiment [10], the system named is Aspergillus flavus. Description: Antifungal activity against Aspergillus flavus MTCC 873 at 100 ug/ml after 24 hrs by disc diffusion method. The format is functional. The following applies: for zone of inhibition at 100 µg/mL: MTCC 873, 24 h, read-out: IZ.
For experiment [11], the system named is Aspergillus niger. As to the kind of experiment: Antifungal activity against Aspergillus niger MTCC 281 at 50 ug/ml after 24 hrs by disc diffusion method. The settings on record: MTCC 281, 24 h, read-out: IZ. The format is functional.
For experiment [12], the system named is Bacillus cereus. As to the kind of experiment: Antibacterial activity against Bacillus cereus MTCC 8372 after 24 hrs by microdilution method. The format is functional. The settings on record: MTCC 8372, 24 h. On the technique in general: Dilution methods test growth across graded concentrations, often in twofold steps.
In experiment [13] the test system is Bacillus cereus. Description: Antibacterial activity against Bacillus cereus MTCC 8372 assessed as concentration required to completely destroy test microorganisms after 24 hrs. The following applies: MTCC 8372, 24 h. The format is functional.
Experiment [14] relates to Staphylococcus aureus. As to the kind of experiment: Antibacterial activity against Staphylococcus aureus MTCC 96 after 24 hrs by microdilution method. The settings on record: MTCC 96, 24 h. It is filed as functional.
Experiment [15] deals with Staphylococcus aureus. As to the kind of experiment: Antibacterial activity against Staphylococcus aureus MTCC 96 assessed as concentration required to completely destroy test microorganisms after 24 hrs. The format is functional. The following applies: MTCC 96, 24 h.
The subject of experiment [16] is Escherichia coli. As to the kind of experiment: Antibacterial activity against Escherichia coli MTCC 724 after 24 hrs by microdilution method. It is filed as functional. The following applies: MTCC 724, 24 h.
Experiment [17] deals with Escherichia coli. Description: Antibacterial activity against Escherichia coli MTCC 724 assessed as concentration required to completely destroy test microorganisms after 24 hrs. It is filed as functional. The following applies: MTCC 724, 24 h.
Experiment [18] relates to Klebsiella pneumoniae. Description: Antibacterial activity against Klebsiella pneumoniae MTCC 3384 after 24 hrs by microdilution method. The following applies: MTCC 3384, 24 h. It is filed as functional.
Experiment [19] relates to Klebsiella pneumoniae. Description: Antibacterial activity against Klebsiella pneumoniae MTCC 3384 assessed as concentration required to completely destroy test microorganisms after 24 hrs. It is filed as functional. The following applies: MTCC 3384, 24 h.
The test system of experiment [20] is Aspergillus flavus. As to the kind of experiment: Antifungal activity against Aspergillus flavus MTCC 873 after 48 hrs by microdilution method. The format is functional.
Experiment [21] deals with Aspergillus flavus. As to the kind of experiment: Antifungal activity against Aspergillus flavus MTCC 873 assessed as concentration required to completely destroy test microorganisms after 24 hrs. The format is functional.
The test system of experiment [22] is Aspergillus niger. As to the kind of experiment: Antifungal activity against Aspergillus niger MTCC 281 after 48 hrs by microdilution method. The format is functional.
The test system of experiment [23] is Aspergillus niger. As to the kind of experiment: Antifungal activity against Aspergillus niger MTCC 281 assessed as concentration required to completely destroy test microorganisms after 24 hrs. It is filed as functional.
Experiment [24] deals with Aspergillus niger. Description: Antifungal activity against Aspergillus niger MTCC 281 at 100 ug/ml after 24 hrs by disc diffusion method. It is filed as functional. The settings on record: MTCC 281, 24 h, read-out: IZ.
Another experiment deals with T1, Alpha amylase (Homo sapiens, UniProt P0DUB6).
T1 sequence (P0DUB6 whole entry): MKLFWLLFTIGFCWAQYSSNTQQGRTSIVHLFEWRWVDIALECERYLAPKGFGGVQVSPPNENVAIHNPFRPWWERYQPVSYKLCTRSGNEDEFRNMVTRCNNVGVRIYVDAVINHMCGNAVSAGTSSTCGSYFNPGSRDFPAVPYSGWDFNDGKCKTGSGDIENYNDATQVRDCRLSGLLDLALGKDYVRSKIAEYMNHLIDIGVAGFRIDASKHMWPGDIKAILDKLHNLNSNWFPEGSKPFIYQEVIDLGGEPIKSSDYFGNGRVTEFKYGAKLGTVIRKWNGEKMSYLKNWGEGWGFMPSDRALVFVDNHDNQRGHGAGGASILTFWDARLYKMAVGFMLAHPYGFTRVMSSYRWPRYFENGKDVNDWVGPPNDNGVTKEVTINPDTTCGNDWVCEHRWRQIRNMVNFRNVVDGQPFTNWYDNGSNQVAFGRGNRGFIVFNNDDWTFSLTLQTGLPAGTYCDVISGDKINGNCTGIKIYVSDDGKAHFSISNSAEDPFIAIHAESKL
Description: Inhibition of alpha-amylase (unknown origin) using starch as substrate after 30 mins by spectrophotometer analysis.

Experiment [25] is described as follows: Inhibition of alpha-glucosidase (unknown origin) using p-nitrophenol glycoside as substrate after 30 mins by colorimetric analysis. Details: species or system Homo sapiens.

Regarding `CCOC(=O)c1c(-c2ccccc2)nn(-c2ccccc2)c1Cn1c(S)nc2ccccc21`, the zone of inhibition at 50 µg/mL in the experiment with Bacillus cereus [1] came to 8 mm; with Staphylococcus aureus [3], 8 mm; with Escherichia coli [5] it was 8 mm; in the experiment on Klebsiella pneumoniae [7], 8 mm; in the experiment with Aspergillus flavus [9], 14 mm; in the experiment on Aspergillus niger [11] it was 10 mm. For the same compound, the zone of inhibition at 100 µg/mL in the experiment on Bacillus cereus [2] was found to be 11 mm; in the experiment with Staphylococcus aureus [4], 12 mm; in the experiment on Escherichia coli [6], 16 mm; in the experiment on Klebsiella pneumoniae [8], 14 mm; with Aspergillus flavus [10], 18 mm; in the experiment on Aspergillus niger [24], 16 mm. The minimum inhibitory concentration (MIC) (in general, the least concentration at which growth counts as inhibited) against Bacillus cereus [12] came to 20 µg/mL (≈ 44 µM); against Staphylococcus aureus [14], 20 µg/mL (≈ 44 µM); against Escherichia coli [16], 25 µg/mL (≈ 55 µM); in the experiment with Klebsiella pneumoniae [18], 25 µg/mL (≈ 55 µM); against Aspergillus flavus [20] (MTCC 873, 48 h), 50 µg/mL (≈ 110 µM); against Aspergillus niger [22] (MTCC 281, 48 h), 40 µg/mL (≈ 88 µM). Also, the MBC (commonly the smallest concentration meeting the test's criterion for killing) was 160 µg/mL (≈ 352 µM) in the experiment on Bacillus cereus [13], 150 µg/mL (≈ 330 µM) with Staphylococcus aureus [15], 175 µg/mL (≈ 385 µM) in the experiment with Escherichia coli [17] and 160 µg/mL (≈ 352 µM) with Klebsiella pneumoniae [19]. The MFC (in general, the lowest tested concentration that kills the fungus rather than only halting it) in the experiment on Aspergillus flavus [21] (MTCC 873, 24 h) was 290 µg/mL (≈ 638 µM); in the experiment with Aspergillus niger [23] (MTCC 281, 24 h), 290 µg/mL (≈ 638 µM). Besides, the values for the IC50 (on Alpha amylase; in experiment [25]) were 40 µg/mL (≈ 88 µM) and 45 µg/mL (≈ 99 µM), respectively.
As to `CCOC(=O)c1c(-c2ccccc2)nn(-c2ccccc2)c1Cn1c(Cl)nc2ccccc21`, the zone of inhibition at 50 µg/mL was found to be 6 mm in the experiment with Bacillus cereus [1]; 9 mm in the experiment on Staphylococcus aureus [3]; 9 mm in the experiment on Escherichia coli [5]; 6 mm in the experiment on Klebsiella pneumoniae [7]; 8 mm in the experiment with Aspergillus flavus [9]; 10 mm in the experiment with Aspergillus niger [11]. The zone of inhibition at 100 µg/mL in the experiment with Bacillus cereus [2] was 14 mm; in the experiment on Staphylococcus aureus [4], 11 mm; in the experiment with Escherichia coli [6], 19 mm; in the experiment with Klebsiella pneumoniae [8] it was 12 mm; in the experiment on Aspergillus flavus [10] it was 9 mm; in the experiment with Aspergillus niger [24], 10 mm. The MIC in the experiment on Bacillus cereus [12] was found to be 35 µg/mL (≈ 76.6 µM); against Staphylococcus aureus [14], 30 µg/mL (≈ 65.7 µM); in the experiment with Escherichia coli [16], 35 µg/mL (≈ 76.6 µM); in the experiment on Klebsiella pneumoniae [18], 30 µg/mL (≈ 65.7 µM); with Aspergillus flavus [20] (MTCC 873, 48 h), 30 µg/mL (≈ 65.7 µM); in the experiment on Aspergillus niger [22] (MTCC 281, 48 h) it was 25 µg/mL (≈ 54.7 µM). Moreover, the MBC in the experiment on Bacillus cereus [13] is 220 µg/mL (≈ 481 µM); with Staphylococcus aureus [15], 160 µg/mL (≈ 350 µM); in the experiment on Escherichia coli [17], 190 µg/mL (≈ 416 µM); in the experiment on Klebsiella pneumoniae [19], 190 µg/mL (≈ 416 µM). The MFC came out at 230 µg/mL (≈ 503 µM) in the experiment with Aspergillus flavus [21] (MTCC 873, 24 h) and 215 µg/mL (≈ 471 µM) in the experiment with Aspergillus niger [23] (MTCC 281, 24 h). Moreover, the IC50 – broadly, the concentration at which inhibition is half-maximal – was found to be 10 µg/mL (≈ 21.9 µM) at Alpha amylase and 20 µg/mL (≈ 43.8 µM) in [25].
Regarding NYSTATIN, the results for the inhibition zone (IZ) in the experiment on Aspergillus flavus [9] and in the experiment with Aspergillus flavus [10] were 16 mm and 20 mm, respectively. Further, the minimal inhibitory concentration (MIC) in the experiment with Aspergillus flavus [20] amounted to 8 µg/mL; in the experiment with Aspergillus niger [22], 10 µg/mL. In addition, the MFC with Aspergillus flavus [21] and in the experiment on Aspergillus niger [23] was 100 µg/mL throughout.
`CN(C)[C@@H]1C(O)=C(C(N)=O)C(=O)[C@@]2(O)C(O)=C3C(=O)c4c(O)cccc4[C@@](C)(O)[C@H]3C[C@@H]12` [TETRACYCLINE]: the zone of inhibition at 50 µg/mL in the experiment with Bacillus cereus [1] is 10 mm; with Staphylococcus aureus [3], 10 mm; in the experiment on Escherichia coli [5] it was 18 mm; in the experiment on Klebsiella pneumoniae [7] it was 12 mm. The zone of inhibition at 100 µg/mL was 22 mm in the experiment with Bacillus cereus [2], 20 mm in the experiment with Staphylococcus aureus [4], 30 mm in the experiment with Escherichia coli [6] and 20 mm in the experiment with Klebsiella pneumoniae [8]. Further, the MIC against Bacillus cereus [12] came out at 4 µg/mL (≈ 9 µM); in the experiment with Staphylococcus aureus [14], 10 µg/mL (≈ 22.5 µM); with Escherichia coli [16], 12 µg/mL (≈ 27 µM); against Klebsiella pneumoniae [18], 8 µg/mL (≈ 18 µM). Moreover, the MBC with Bacillus cereus [13], with Staphylococcus aureus [15], with Escherichia coli [17] and in the experiment on Klebsiella pneumoniae [19] was 120 µg/mL (≈ 270 µM) in each case.
